Experimental data taken from patent US8106197B2, “Aminoheteroaryl compounds as protein kinase inhibitors” (Pfizer Inc., priority 2003, dated 2012).
Read-outs that look alike come from different tables or passages of the source.

Target: T1, HGFR (Homo sapiens, UniProt P08581)
T1 construct: purchased Upstate 14-526
Test: HGFR continuous-coupled spectrophotometric assay
Type: biochemical
Details: for I(%): Table 3, Ki(μM) or I(%), test concentration not given; for inhibition at 0.05 µM: Table 5, percent c-MET inhibition at 50 nM

[1] = Table 6, percent c-MET inhibition at 1 μM, read-out: % inhibition

T1 sequence (P08581 974-1390 limits assumed): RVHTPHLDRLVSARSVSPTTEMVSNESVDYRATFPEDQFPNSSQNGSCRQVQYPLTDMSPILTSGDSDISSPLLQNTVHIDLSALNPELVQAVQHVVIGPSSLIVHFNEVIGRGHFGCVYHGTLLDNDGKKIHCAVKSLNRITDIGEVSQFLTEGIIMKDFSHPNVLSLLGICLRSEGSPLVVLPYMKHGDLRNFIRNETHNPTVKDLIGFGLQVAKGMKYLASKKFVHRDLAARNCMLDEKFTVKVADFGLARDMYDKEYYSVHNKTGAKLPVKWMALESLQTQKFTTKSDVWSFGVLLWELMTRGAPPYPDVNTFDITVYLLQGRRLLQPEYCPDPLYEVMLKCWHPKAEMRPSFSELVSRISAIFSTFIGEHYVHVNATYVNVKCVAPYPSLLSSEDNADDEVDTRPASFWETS

SMILES: Cc1ccc(F)c(COc2cc(-c3ccc(C(=O)N4CCC(N5CCCC5)CC4)cc3)cnc2N)c1F
- % inhibition: % inhibition = 51

SMILES: Nc1ncc(-c2ccc(C(=O)N3CCC(N4CCCC4)CC3)cc2)cc1OCc1nc2cccnc2[nH]1
- % inhibition: % inhibition = 17

SMILES: CNC(=O)c1ccc(OC)c(-c2noc(OCc3cc(-c4ccc(C(=O)N5CCC(N6CCCC6)CC5)cc4)cnc3N)n2)c1
- % inhibition: % inhibition = 11

SMILES: Nc1ncc(-c2ccc(C(=O)N3CCC(N4CCCC4)CC3)cc2)cc1OCc1ccncc1
- % inhibition: % inhibition = 10

SMILES: Nc1ncc(-c2ccc(C(=O)N3CCC(N4CCCC4)CC3)cc2)cc1OCc1cc(-c2c(Cl)cccc2Cl)no1
- % inhibition: % inhibition = 14

SMILES: Nc1ncc(C(=O)N[C@@H]2CCCC[C@H]2CO)cc1OCc1c(Cl)cccc1Cl
- inhibition at 1 µM [1]: 24%

SMILES: Nc1ncc(C(=O)N2CCC3(CC2)CC(CCc2ccnnc2)CO3)cc1OCc1c(Cl)cccc1Cl (stereo not shown)
- inhibition at 1 µM [1]: 37%

SMILES: Nc1ncc(C(=O)N2CCc3nnc(CCN4CCOCC4)n3CC2)cc1OCc1c(Cl)cccc1Cl
- inhibition at 1 µM [1]: 27%

SMILES: COC(=O)Nc1cc(COc2cc(-c3ccc(C(=O)N4CCC(N5CCCC5)CC4)cc3)cnc2N)on1
- % inhibition: % inhibition = 18

SMILES: Cc1cc(-c2onc(C)c2COc2cc(-c3ccc(C(=O)N4CCC(N5CCCC5)CC4)cc3)cnc2N)no1
- % inhibition: % inhibition = 22

SMILES: CCS(=O)(=O)N1CCN(C(=O)c2cnc(N)c(OCc3c(Cl)cccc3Cl)c2)CC1
- inhibition at 1 µM [1]: 22%

SMILES: Cc1ccnc2nc(COc3cc(-c4ccc(C(=O)N5CCC(N6CCCC6)CC5)cc4)cnc3N)cn12
- % inhibition: % inhibition = 10

SMILES: Nc1ncc(C(=O)N2CCC(=O)CC2)cc1OCc1c(Cl)cccc1Cl
- inhibition at 1 µM: 44%

SMILES: CC(C)CCNC(=O)c1cnc(N)c(OCc2c(Cl)cccc2Cl)c1
- inhibition at 1 µM [1]: 26%

SMILES: CC(C)c1ccc(COc2cc(-c3ccc(C(=O)N4CCC(N5CCCC5)CC4)cc3)cnc2N)cc1
- % inhibition: % inhibition = 32

SMILES: Nc1ncc(C(=O)N[C@@H]2c3ccccc3C[C@@H]2O)cc1OCc1c(Cl)cccc1Cl
- inhibition at 1 µM [1]: 23%

SMILES: Nc1ncc(C(=O)N[C@@H]2CCC[C@H]2OCc2ccccc2)cc1OCc1c(Cl)cccc1Cl
- inhibition at 1 µM [1]: 16%

SMILES: Nc1ncc(C(=O)N2CCC3(CC2)CC(N2CCC(O)CC2)CO3)cc1OCc1c(Cl)cccc1Cl (stereo not shown)
- inhibition at 1 µM [1]: 28%

SMILES: Nc1ncc(C(=O)NC[C@H]2CCCC[C@H]2O)cc1OCc1c(Cl)cccc1Cl
- inhibition at 1 µM [1]: 24%

SMILES: Nc1ncc(C(=O)N2CCC(O)(Cc3ccccc3)CC2)cc1OCc1c(Cl)cccc1Cl
- inhibition at 1 µM [1]: 62%

SMILES: Nc1ncc(-c2ccc(C(=O)N3CCC(N4CCCC4)CC3)cc2)cc1OCc1nnnn1Cc1ccccc1
- % inhibition: % inhibition = 19

SMILES: CC(=O)N(c1ccc(C)cc1)c1nc(COc2cc(-c3ccc(C(=O)N4CCC(N5CCCC5)CC4)cc3)cnc2N)cs1
- % inhibition: % inhibition = 9

SMILES: Cc1nc(CCNC(=O)c2cnc(N)c(OCc3c(Cl)cccc3Cl)c2)c[nH]1
- inhibition at 1 µM [1]: 23%

SMILES: Nc1ncc(C(=O)NCc2noc(C(=O)N3CC[C@H](O)C3)n2)cc1OCc1c(Cl)cccc1Cl
- inhibition at 1 µM [1]: 26%

SMILES: CN(C)c1ccc(CNC(=O)c2cnc(N)c(OCc3c(Cl)cccc3Cl)c2)cc1
- inhibition at 1 µM [1]: 30%

SMILES: Cc1cccc(COc2cc(-c3ccc(C(=O)N4CCC(N5CCCC5)CC4)cc3)cnc2N)n1
- % inhibition: % inhibition = 17

SMILES: Nc1ncc(C(=O)NC2CCCNC2=O)cc1OCc1c(Cl)cccc1Cl (stereo not shown)
- inhibition at 1 µM [1]: 16%

SMILES: Nc1ncc(C(=O)N2CCC(N3CCCCC3=O)CC2)cc1OCc1c(Cl)cccc1Cl
- inhibition at 1 µM [1]: 26%

SMILES: COc1ccc(-c2nc(COc3cc(-c4ccc(C(=O)N5CCC(N6CCCC6)CC5)cc4)cnc3N)no2)cc1
- % inhibition: % inhibition = 10

SMILES: Cc1[nH]cnc1COc1cc(-c2ccc(C(=O)N3CCC(N4CCCC4)CC3)cc2)cnc1N
- % inhibition: % inhibition = 12

SMILES: CC(C)(O)c1ccc(CNC(=O)c2cnc(N)c(OCc3c(Cl)cccc3Cl)c2)cc1
- inhibition at 1 µM [1]: 24%

SMILES: CC(C)(CO)CNC(=O)c1cnc(N)c(OCc2c(Cl)cccc2Cl)c1
- inhibition at 1 µM [1]: 39%

SMILES: N#CC1(c2ccccc2)CCN(C(=O)c2cnc(N)c(OCc3c(Cl)cccc3Cl)c2)CC1
- inhibition at 1 µM [1]: 37%

SMILES: Nc1ncc(C(=O)N2CCC(O)CC2)cc1OCc1c(Cl)cccc1Cl
- inhibition at 1 µM [1]: 35%

SMILES: CCOC(=O)C1CCN(C(=O)c2ccc(COc3cc(-c4ccc(C(=O)N5CCC(N6CCCC6)CC5)cc4)cnc3N)cc2)CC1
- % inhibition: % inhibition = 16

SMILES: Nc1ncc(C(=O)NCCCN2CCOCC2)cc1OCc1c(Cl)cccc1Cl
- inhibition at 1 µM [1]: 26%

SMILES: COCCNC(=O)C1CCCN(C(=O)c2cnc(N)c(OCc3c(Cl)cccc3Cl)c2)C1 (stereo not shown)
- inhibition at 1 µM [1]: 20%

SMILES: CC(Oc1nc(-c2ccc(C(=O)N3CCC[C@H]3CN3CCCC3)cc2)cnc1N)c1c(Cl)cccc1Cl (stereo partly shown)
- % inhibition: % inhibition = 14

SMILES: CC(=O)Nc1nc(COc2cc(-c3ccc(C(=O)N4CCC(N5CCCC5)CC4)cc3)cnc2N)cs1
- % inhibition: % inhibition = 9

SMILES: Nc1ncc(C(=O)NCc2c(F)cccc2F)cc1OCc1c(Cl)cccc1Cl
- inhibition at 1 µM [1]: 32%

SMILES: Nc1ncc(-c2ccc(C(=O)N3CCC(N4CCCC4)CC3)cc2)cc1OCc1ccc(C(=O)NCc2cccnc2)cc1
- % inhibition: % inhibition = 15

SMILES: CCOC(=O)c1nc(COc2cc(-c3ccc(C(=O)N4CCC(N5CCCC5)CC4)cc3)cnc2N)no1
- % inhibition: % inhibition = 8

SMILES: Nc1ncc(C(=O)NCCN2CCOCC2)cc1OCc1c(Cl)cccc1Cl
- inhibition at 1 µM [1]: 31%

SMILES: CC(=O)c1ccccc1-c1cnc(N)c(OC(C)c2c(Cl)ccc(F)c2Cl)c1 (stereo not shown) [Example I-562, 1-(2-{6-Amino-5-[1-(2,6-dichloro-3-fluoro-phenyl)-ethoxy]-pyridin-3-yl}-phenyl)-ethanone]
- I(%): 8%

SMILES: COC(=O)c1cccc(COc2cc(-c3ccc(C(=O)N4CCC(N5CCCC5)CC4)cc3)cnc2N)c1 [Example I-625, 3-{2-Amino-5-[4-(4-pyrrolidin-1-yl-piperidzne-1-carbonyl)-phenyl]-pyridin-3-yloxymethyl)-benzoic acid methyl ester]
- I(%): 6%

SMILES: Nc1nc(COc2cc(-c3ccc(C(=O)N4CCC(N5CCCC5)CC4)cc3)cnc2N)nc(Nc2ccccc2)n1
- % inhibition: % inhibition = 9

SMILES: Nc1ncc(-c2ccc(C(=O)N3CCC(N4CCCC4)CC3)cc2)cc1OCc1ccc(C(=O)NC2CCN(Cc3ccccc3)CC2)cc1
- % inhibition: % inhibition = 11

SMILES: Cc1oc(-c2ccc(F)cc2)nc1COc1cc(-c2ccc(C(=O)N3CCC(N4CCCC4)CC3)cc2)cnc1N
- % inhibition: % inhibition = 17

SMILES: CC(Oc1cc(-c2ccc(C(=O)N3CCC(Cc4ccccc4)C3)cc2)cnc1N)c1c(Cl)ccc(F)c1Cl (stereo not shown)
- inhibition at 0.05 µM: 59%

SMILES: CCCC(CO)NC(=O)c1cnc(N)c(OCc2c(Cl)cccc2Cl)c1 (stereo not shown)
- inhibition at 1 µM [1]: 30%

SMILES: Nc1ncc(C(=O)NCc2ccc(F)cc2Cl)cc1OCc1c(Cl)cccc1Cl
- inhibition at 1 µM [1]: 37%

SMILES: Nc1ncc(-c2ccc(C(=O)N3CCC(N4CCCC4)CC3)cc2)cc1OCc1cccc(C(=O)NCc2ccncc2)c1
- % inhibition: % inhibition = 10

SMILES: CN(C)C1CCN(C(=O)c2cnc(N)c(OCc3c(Cl)cccc3Cl)c2)C1 (stereo not shown)
- inhibition at 1 µM [1]: 33%

SMILES: Nc1ncc(C(=O)N2CCCC(C(=O)N3CCCC3)C2)cc1OCc1c(Cl)cccc1Cl (stereo not shown)
- inhibition at 1 µM [1]: 47%

SMILES: COc1ccccc1-c1nc(COc2cc(-c3ccc(C(=O)N4CCC(N5CCCC5)CC4)cc3)cnc2N)no1
- % inhibition: % inhibition = 8

SMILES: Nc1ncc(-c2ccc(C(=O)N3CCC(N4CCCC4)CC3)cc2)cc1OCc1cccc(C(=O)NC2CCN(Cc3ccccc3)C2)c1 (stereo not shown)
- % inhibition: % inhibition = 13

SMILES: Nc1ncc(C(=O)NCCOc2ccccc2)cc1OCc1c(Cl)cccc1Cl
- inhibition at 1 µM [1]: 66%

SMILES: CC(Oc1cc(-c2ccc(C(=O)N[C@H]3CC[C@H](CO)CC3)cc2)cnc1N)c1c(Cl)ccc(F)c1Cl (stereo partly shown)
- inhibition at 0.05 µM: 68%

SMILES: Nc1ncc(C(=O)N2CCC(C(=O)c3ccccc3)CC2)cc1OCc1c(Cl)cccc1Cl
- inhibition at 1 µM [1]: 32%

SMILES: Nc1ncc(-c2ccc(C(=O)N3CCC(N4CCCC4)CC3)cc2)cc1OCc1csc(-c2ccc(Cl)cc2)n1
- % inhibition: % inhibition = 9

SMILES: Cc1oc(-c2cccc(F)c2)nc1COc1cc(-c2ccc(C(=O)N3CCC(N4CCCC4)CC3)cc2)cnc1N
- % inhibition: % inhibition = 8

SMILES: CC(Oc1cc(-c2ccc(C(=O)N3CCCC(CO)C3)cc2)cnc1N)c1c(Cl)ccc(F)c1Cl (stereo not shown)
- inhibition at 0.05 µM: 84%

SMILES: CC(Oc1cc(-c2ccc(C(=O)N3CCC(N4CCCC4)CC3)cc2)cnc1N)c1ccccc1 (stereo not shown)
- % inhibition: % inhibition = 10

SMILES: COc1ccccc1-c1nc(COc2cc(-c3ccc(C(=O)N4CCC(N5CCCC5)CC4)cc3)cnc2N)c(C)o1
- % inhibition: % inhibition = 19

SMILES: Cn1nc(-c2ccccc2)c(COc2cc(-c3ccc(C(=O)N4CCC(N5CCCC5)CC4)cc3)cnc2N)c1Cl
- % inhibition: % inhibition = 63

SMILES: Nc1ncc(C(=O)NCCCO)cc1OCc1c(Cl)cccc1Cl
- inhibition at 1 µM [1]: 26%

SMILES: Nc1ncc(-c2ccc(C(=O)N3CCC(N4CCCC4)CC3)cc2)cc1OCc1ccc(-c2csnn2)cc1
- % inhibition: % inhibition = 41

SMILES: Nc1ncc(-c2ccc(C(=O)N3CCC(N4CCCC4)CC3)cc2)cc1OCc1ccc(C(=O)NCCN2CCCC2)cc1
- % inhibition: % inhibition = 10

SMILES: CC(Oc1cc(-c2ccc(C(=O)N3CCC(N4CCCC4)CC3)cc2)cnc1N)c1ccc(C(=O)NCCc2cccc(O)c2)cc1 (stereo not shown) [Example I-629, 4-(1-{2-Amino-5-[4-(4-pyrrolidin-1-yl-piperidine-1-carbonyl)-phenyl]-pyridin-3-yloxy}-ethyl)-[2-(3-hydroxy-phenyl)-ethyl]-benzamide]
- I(%): 7%

SMILES: CCC(COC)NC(=O)c1ccc(-c2cnc(N)c(OC(C)c3c(Cl)ccc(F)c3Cl)c2)cc1 (stereo not shown)
- inhibition at 0.05 µM: 59%

SMILES: CN(C)CC(C)(C)CNC(=O)c1cnc(N)c(OCc2c(Cl)cccc2Cl)c1
- inhibition at 1 µM [1]: 38%

SMILES: CC(C)(C)c1ccc(-c2noc(COc3cc(-c4ccc(C(=O)N5CCC(N6CCCC6)CC5)cc4)cnc3N)n2)cc1
- % inhibition: % inhibition = 36

SMILES: Nc1ncc(-c2ccc(C(=O)N3CCC(N4CCCC4)CC3)cc2)cc1OCc1cc(-c2ccc(Cl)cc2)no1
- % inhibition: % inhibition = 23

SMILES: Nc1ncc(-c2ccc(C(=O)N3CCC(N4CCCC4)CC3)cc2)cc1OCc1cc(-c2ccccc2)no1
- % inhibition: % inhibition = 23

SMILES: Nc1ncc(C(=O)NCc2ccccc2OC(F)(F)F)cc1OCc1c(Cl)cccc1Cl
- inhibition at 1 µM [1]: 31%

SMILES: CC(C)CCNC(=O)C1CC12CCN(C(=O)c1cnc(N)c(OCc3c(Cl)cccc3Cl)c1)CC2 (stereo not shown)
- inhibition at 1 µM [1]: 21%
